Experimental data: patent US20060199736A1, “Environmentally benign bioactive formulation” (priority 2002, published 2006)

Legend:
[1] = cited from earlier work
[2] = pH study of dilute solutions of VertecBio solvents in water; type: physicochemical
Procedure: The Citrus and Gold blends were made of 80% Ethyl lactate and 20% d-limonene and methyl soyate respectively. The pH was measured at various intervals and was recorded.
(§1) The initial pH of the water was approximately 7.80 pH units.

[3] = pH study of dilute solutions of VertecBio solvents with neem oil containing azadirachtin; type: physicochemical; conditions: solvent mixed with 3% (w/w) neem oil
Procedure: The biosolvents were mixed with 3% (w/w) neem oil containing the natural pesticide azadirachtin. These were diluted in water at one, two, and three percent concentrations. The Citrus™ and Gold™ blends were made of 80% ethyl lactate and 20% d-limonene and methyl soyate, respectively, as described above. […] The initial pH of the water was 7.80 pH units.

[4] = pH study of dilute solutions of VertecBio solvents with dichlorvos; type: physicochemical; conditions: solvent containing 1% dichlorvos
Procedure: In this example, the pH of a dilute solution of an organophosphate pesticide is tracked over time. The dilution into water is done without any surfactants.
The biosolvents were diluted in water at one, two, and three percent concentrations. The solvents, before being diluted, contained 1% dichlorvos. The VertecBio Citrus™ and Gold™ blends were made of 80% ethyl lactate and 20% d-limonene and methyl soyate respectively.
as §1

## CCCCNC(=O)n1c(NC(=O)OC)nc2ccccc21 [Benlate, benomyl]
[1]
  ½ Life at pH 5.0: 30 hr
  ½ Life at pH 7.0: 1 hr

## O=C1C2CC=CCC2C(=O)N1SC(Cl)(Cl)Cl (stereo not drawn) [Captan, captan]
[1]
  ½ Life at pH 5.0: 10 hr
  ½ Life at pH 7.0: 3 hr
  ½ Life at pH 8.0: 10 min
  ½ Life at pH 9.0: 2 min

## CNC(=O)CSP(=S)(OC)OC [Cygon, dimethoate]
[1]
  ½ Life at pH 6.0: 12 hr
  ½ Life at pH 9.0: 48 min

## CCOP(=S)(OCC)Oc1nc(Cl)c(Cl)cc1Cl [Dursban, chlorpyrofos]
[1]
  ½ Life at pH 5.0: 63 days
  ½ Life at pH 7.0: 35 days
  ½ Life at pH 8.0: 1.5 days

## CCOC(=O)C(C)O (stereo not drawn) [Ethyl Lactate, ethyl lactate]
[2]; 1% in water, 2 hours
  pH of dilute solution: 7.25
[2]; 1% in water, 4 hours
  pH of dilute solution: 7.10
[2]; 1% in water, 6 hours
  pH of dilute solution: 6.95
[2]; 1% in water, 8 hours
  pH of dilute solution: 7.11
[2]; 1% in water, 24 hours
  pH of dilute solution: 6.78
[2]; 1% in water, 48 hours
  pH of dilute solution: 6.75
[2]; 1% in water, 72 hours
  pH of dilute solution: 6.56
[2]; 1% in water, Initial
  pH of dilute solution: 7.75
[2]; 2% in water, 2 hours
  pH of dilute solution: 7.14
[2]; 2% in water, 4 hours
  pH of dilute solution: 7.00
[2]; 2% in water, 6 hours
  pH of dilute solution: 6.90
[2]; 2% in water, 8 hours
  pH of dilute solution: 6.90
[2]; 2% in water, 24 hours
  pH of dilute solution: 6.56
[2]; 2% in water, 48 hours
  pH of dilute solution: 6.43
[2]; 2% in water, 72 hours
  pH of dilute solution: 5.88
[2]; 2% in water, Initial
  pH of dilute solution: 7.65
[2]; 3% in water, 2 hours
  pH of dilute solution: 7.01
[2]; 3% in water, 4 hours
  pH of dilute solution: 6.90
[2]; 3% in water, 6 hours
  pH of dilute solution: 6.78
[2]; 3% in water, 8 hours
  pH of dilute solution: 6.79
[2]; 3% in water, 24 hours
  pH of dilute solution: 6.47
[2]; 3% in water, 48 hours
  pH of dilute solution: 5.93
[2]; 3% in water, 72 hours
  pH of dilute solution: 5.47
[2]; 3% in water, Initial
  pH of dilute solution: 7.54
[3]; 1% in water, 4 hours
  pH of dilute solution: 7.43
[3]; 1% in water, 24 hours
  pH of dilute solution: 6.77
[3]; 1% in water, 48 hours
  pH of dilute solution: 6.94
[3]; 1% in water, 72 hours
  pH of dilute solution: 6.39
[3]; 1% in water, Initial
  pH of dilute solution: 7.59
[3]; 2% in water, 48 hours
  pH of dilute solution: 6.74
[3]; 2% in water, 72 hours
  pH of dilute solution: 6.02
[3]; 2% in water, Initial
  pH of dilute solution: 7.41
[3]; 3% in water, 24 hours
  pH of dilute solution: 6.68
[3]; 3% in water, 48 hours
  pH of dilute solution: 6.61
[3]; 3% in water, 72 hours
  pH of dilute solution: 5.78
[3]; 3% in water, Initial
  pH of dilute solution: 7.31
[4]; 1% in water, 4 hours
  pH of dilute solution: 7.3
[4]; 1% in water, 24 hours
  pH of dilute solution: 7.15
[4]; 1% in water, 48 hours
  pH of dilute solution: 7.08
[4]; 1% in water, 72 hours
  pH of dilute solution: 6.89
[4]; 1% in water, Initial
  pH of dilute solution: 7.72
[4]; 2% in water, 24 hours
  pH of dilute solution: 6.92
[4]; 2% in water, 48 hours
  pH of dilute solution: 6.55
[4]; 2% in water, 72 hours
  pH of dilute solution: 6.04
[4]; 2% in water, Initial
  pH of dilute solution: 7.5
[4]; 3% in water, 4 hours
  pH of dilute solution: 6.97
[4]; 3% in water, 24 hours
  pH of dilute solution: 6.6
[4]; 3% in water, 48 hours
  pH of dilute solution: 6.28
[4]; 3% in water, 72 hours
  pH of dilute solution: 5.45
[4]; 3% in water, Initial
  pH of dilute solution: 7.51

## COP(=S)(OC)SCn1nnc2ccccc2c1=O [Guthion, azin-phos methyl]
[1]
  ½ Life at pH 5.0: 60 hr
  ½ Life at pH 9.0: 12 hr

## COP(=S)(OC)SCN1C(=O)c2ccccc2C1=O [Imidan, phosmet]
[1]
  ½ Life at pH 5.0: 7 days
  ½ Life at pH 7.0: 12 hr
  ½ Life at pH 8.0: 4 hr

## CCOC(=O)CC(SP(=S)(OC)OC)C(=O)OCC (stereo not drawn) [Malathion, malathion]
[1]
  ½ Life at pH 6.0: 8 days
  ½ Life at pH 7.0: 3 days
  ½ Life at pH 8.0: 19 hr
  ½ Life at pH 9.0: 5 hr

## CNC(=O)Oc1cccc2ccccc12 [Sevin, carbaryl]
[1]
  ½ Life at pH 7.0: 10 days
  ½ Life at pH 9.0: 24 hr
